Measurements as given in PMC5517562, “Design and discovery of novel monastrol-1,3,5-triazines as potent anti-breast cancer agent via attenuating Epidermal Growth Factor Receptor tyrosine kinase” (Scientific Reports, 2017).

What was measured:
WT EGFR = test system: WT EGFR; set-up: method as in PMID 22227214; conditions: cited from earlier work
mutant EGFRT790M/L858R = test system: mutant EGFRT790M/L858R; set-up: method as in PMID 22227214; conditions: cited from earlier work
A549 = test system: A549; set-up: method as in PMID 22227214; conditions: read-out: IC50 antiproliferative activity A549; cited from earlier work
A431 = test system: A431; set-up: method as in PMID 22227214; conditions: read-out: IC50 antiproliferative activity A431; cited from earlier work
NCIH1975 = test system: NCIH1975; set-up: method as in PMID 22227214; conditions: read-out: IC50 antiproliferative activity NCIH1975; cited from earlier work
HeLa (cervical cancer) = experiment: MTT in vitro cytotoxicity assay, HeLa; assay type: cell-based, human; conditions: Homo sapiens
Protocol: (§1) The synthesized compounds were evaluated for in-vitro cytotoxic activity against various cell lines such as HeLa (cervical cancer), MCF-7 (breast cancer), HL-60 (Human promyelocytic leukemia), HepG2 (Hepatocellular carcinoma) and MCF 12A (normal epithelial cell) by the MTT assay method. […] The relationship between surviving fraction and drug concentration was plotted to obtain the survival curve of all the cancer cell lines HeLa, MCF-7, HL-60 and HepG2. The response parameter calculated was the IC50 values, which responds to the concentration required for 50% inhibition of cell viability. The in-vitro cytotoxic activity of the synthesized compounds is summarized Table 3.
(§2) The target compounds were subjected to in vitro cytotoxicity bioassay. In vitro cytotoxicity was determined using a standard MTT assay with protocol appropriate for the individual test system[29]–[31]. The four human cancer cell lines HeLa, MCF-7, HL-60, HepG2 and MCF-12A were cultured in the MEM medium supplemented with 10% FBS, 1% glutamine and […] gentamicin sulfate in a CO2 incubator in a humidified atmosphere of 5% CO2 and 95% air. The test compounds were prepared prior to the experiment by dissolving in 0.1% DMSO and diluted with medium. The cells were then exposed to different concentrations of drugs ([…]) in the volume of […]. Cells in the control wells received the same volume of medium containing 0.1% DMSO. After 24 h, the medium was removed and cell cultures were incubated with […] MTT reagent (1 mg/ml) for 5 h at 37 °C. The known number of cells ([…]) was incubated in a 5% CO2 incubator at 37 °C in the presence of different concentrations of test compounds. After 48 h of drug incubation, the MTT solution was added in each well and absorbance was recorded at 540 nm by an ELISA reader. The experiment was performed in triplicate. Cell survival was calculated as the percentage of MTT inhibition as % growth inhibition = 100 − (mean OD of individual test Group/Mean OD of each Control Group) × 100.

MCF-7 (breast cancer) = experiment: MTT in vitro cytotoxicity assay, MCF-7; assay type: cell-based, human; conditions: Homo sapiens, MCF7
Protocol: as §1, §2

[1] = test system: HL-60 (Human promyelocytic leukemia); experiment: MTT in vitro cytotoxicity assay, HL-60; assay type: cell-based; conditions: Homo sapiens
Protocol: as §1, §2

[2] = test system: HepG2 (Hepatocellular carcinoma); experiment: MTT in vitro cytotoxicity assay, HepG2; assay type: cell-based, human; conditions: Homo sapiens, NA: Not active
Protocol: as §1, §2

[3] = test system: MCF 12A (normal epithelial breast cell line); experiment: MTT assay on normal cells, MCF 12A; assay type: cell-based, human; conditions: Homo sapiens, normal epithelial breast cell MCF 12A
Protocol: as §1
The presence of non-halogen substituent along with electron donating substituent seriously jeopardise the anticancer potential. […] To determine the selectivity of these molecules between normal and cancerous cells, the designed compounds were also tested against MCF 12A, a normal epithelial breast cell.
as §2

EGFR-TK = biological target: T1, EGFR-TK (Homo sapiens, UniProt P00533); experiment: EGFR tyrosine kinase inhibitory activity (Kinase-Glo Plus luminescence); assay type: biochemical; conditions: at 10 µM; read-out: Percent of Inhibition, EGFR tyrosine kinase
T1 construct: 0.2 mg/mL Poly (Glu, Tyr) substrate, 10 mM ATP and EGFR
Protocol: Kinase activity was determined using Kinase-Glo Plus luminescence kinase assay kit, by quantitating the amount of ATP remaining in the solution of kinase reaction. The luminescent signal is correlated with the residual amount present and it was inversely related with kinase activity. The tested compounds were diluted to 100 mM in 10% DMSO, then […] of the dilution was added to a 50 mL reaction. All of the enzymatic reactions were performed at 30 °C for 40 min, 50 mL of reaction mixture contains 10 mM MgCl2, 40 mM Tris, pH 7.4, 0.1 mg/mL BSA, 0.2 mg/mL Poly (Glu, Tyr) substrate, 10 mM ATP and EGFR. Incubate the plate for 5 min at r.t. then add 50 mL of Kinase-GloPlus Luminescence kinase assay to each reaction. ADP-Glo assay kit is the protein kinase assays used to determine IC50 values in which ADP generation was measured as it leads to an increase in luminescence signal. The reaction mixture was incubated in a 96-well plate at 30 °C for 30 min, after the incubation period add 25 mL of ADP-Glo reagent to terminate the assay. Shake the 96-well plate for 30 min at ambient temperature then incubate it, then add 50 mL of kinase detection reagent. Read the 96-well plate using the ADP-Glo Luminescence reader. All the assay components were added to the blank control except the substrate. By removing the blank control value you can obtain the corrected activity for each protein kinase target.

T1 sequence (P00533 25-1210): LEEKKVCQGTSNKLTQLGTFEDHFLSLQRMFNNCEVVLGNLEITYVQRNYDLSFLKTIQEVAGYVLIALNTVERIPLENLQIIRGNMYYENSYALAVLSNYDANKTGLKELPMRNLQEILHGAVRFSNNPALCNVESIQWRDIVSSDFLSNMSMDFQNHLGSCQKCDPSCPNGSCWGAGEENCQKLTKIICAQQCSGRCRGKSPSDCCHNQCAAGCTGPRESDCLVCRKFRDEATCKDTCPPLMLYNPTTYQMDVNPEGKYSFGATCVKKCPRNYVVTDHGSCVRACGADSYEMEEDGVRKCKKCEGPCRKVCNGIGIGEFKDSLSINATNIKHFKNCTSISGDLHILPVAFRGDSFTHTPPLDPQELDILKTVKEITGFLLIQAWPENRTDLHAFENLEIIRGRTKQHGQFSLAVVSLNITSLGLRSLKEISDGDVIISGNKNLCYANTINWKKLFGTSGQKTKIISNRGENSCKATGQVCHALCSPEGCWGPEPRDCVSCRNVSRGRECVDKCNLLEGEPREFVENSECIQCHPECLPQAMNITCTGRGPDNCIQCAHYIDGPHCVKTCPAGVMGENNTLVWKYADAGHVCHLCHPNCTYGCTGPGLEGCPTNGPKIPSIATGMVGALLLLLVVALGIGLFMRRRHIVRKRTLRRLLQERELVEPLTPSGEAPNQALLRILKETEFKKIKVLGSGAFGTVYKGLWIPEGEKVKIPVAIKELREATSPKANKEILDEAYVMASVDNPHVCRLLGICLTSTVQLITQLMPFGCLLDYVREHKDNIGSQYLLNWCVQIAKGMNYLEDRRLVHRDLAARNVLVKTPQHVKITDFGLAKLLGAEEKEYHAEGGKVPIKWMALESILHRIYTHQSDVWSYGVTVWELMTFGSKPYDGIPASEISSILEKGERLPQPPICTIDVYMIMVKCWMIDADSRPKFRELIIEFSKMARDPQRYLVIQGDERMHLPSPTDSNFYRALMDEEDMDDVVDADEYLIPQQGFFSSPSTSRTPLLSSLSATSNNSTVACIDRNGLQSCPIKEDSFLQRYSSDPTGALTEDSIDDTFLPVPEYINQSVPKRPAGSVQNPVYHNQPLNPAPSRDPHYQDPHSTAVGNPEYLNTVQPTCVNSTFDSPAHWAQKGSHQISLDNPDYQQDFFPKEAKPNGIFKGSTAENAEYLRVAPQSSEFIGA

| Compound | IC50 (WT EGFR) [µM] | IC50 (mutant EGFRT790M/L858R) [µM] | IC50 (A549) [µM] | IC50 (A431) [µM] | IC50 (NCIH1975) [µM] | IC50 (HeLa (cervical cancer)) [µM] | IC50 (MCF-7 (breast cancer)) [µM] | IC50 [1] [µM] | IC50 [2] [µM] | IC50 [3] [µM] | inhibition at 10 µM (EGFR-TK) [%] | melting point [°C] |
| --- | --- | --- | --- | --- | --- | --- | --- | --- | --- | --- | --- | --- |
| CC(C)Nc1nc(N/N=C/c2cc(Br)c(O)c(Br)c2O)nc(Nc2ccc(F)cc2)n1 [1a] | 25.9 | 6.5 | 7.7 ± 1.3 | 8 ± 1.6 | 10.5 ± 0.9 |  |  |  |  |  |  |  |
| CNc1nc(N/N=C/c2ccc(O)cc2)nc(Nc2ccccc2)n1 [1f] | > 100 | 30.7 |  |  |  |  |  |  |  |  |  |  |
| CCOC(=O)C1=C(C)N(c2nc(Nc3ccc(Cl)cc3)nc(Nc3ccc(Cl)cc3)n2)C(=S)NC1c1ccccc1Cl (stereo not drawn) [7j, Ethyl 1-(4,6-bis((4-chlorophenyl)amino)-1,3,5-triazin-2-yl)-4-(2-chlorophenyl)-6-methyl-2-thioxo-1,2,3,4-tetrahydropyrimidine-5-carboxylate] |  |  |  |  |  | 46.2 ± 0.56 | 57 ± 0.47 | 39.6 ± 0.78 | 38.7 ± 0.32 | 69.13 ± 0.62 | 82.4 | 112 to 114 |
| CCOC(=O)C1=C(C)N(c2nc(Nc3cccc(Cl)c3)nc(Nc3cccc(Cl)c3)n2)C(=S)NC1c1ccc(F)cc1 (stereo not drawn) [7m, Ethyl 1-(4,6-bis((3-chlorophenyl)amino)-1,3,5-triazin-2-yl)-4-(4-fluorophenyl)-6-methyl-2-thioxo-1,2,3,4-tetrahydropyrimidine-5-carboxylate] |  |  |  |  |  | 42.1 ± 0.34 | 53.8 ± 0.28 | 36.5 ± 0.48 | 39.3 ± 0.12 | 73.56 ± 0.4 | 88.5 | 153 to 155 |
